# Laboratory results: patent US20060247223A1, “Non-imidazole alkylamines as histamine H3- receptor ligands and their therapeutic applications” (priority 1998, published 2006)
# Counter-ions that a name gives are not always drawn.
row,melting point [°C],SMILES
1,174 to 175,"CC(=O)c1ccc(OCCCN2C[C@H](C)C[C@H](C)C2)cc1 (as salt: oxalate) [Example 70, 1-[3-(4-acetylphenoxy)-propyl]-3,5-cis-dimethyl-piperidine]"
2,157 to 160,CCC(=NO)c1ccc(OCCCN2CCC(C)CC2)cc1 (as salt: oxalate) [Example 107]
3,121 to 124,"CCCc1ccc(OCCCN2CCCCC2)cc1 (as salt: oxalate) [Example 113, 1-[3-(4-propylphenoxy)propyl]piperidine]"
4,148 to 151,"CCc1ccc(OCCCN2CCCCC2)cc1 (as salt: oxalate) [Example 114, 1-[3-(4-ethylphenoxy)propyl]piperidine]"
5,179 to 181,"CCC(=NOC)c1ccc(OCCCN2CCC(C)CC2)cc1 (as salt: oxalate) [Example 99, 1-[3-(4-propionylphenoxy)propyl]-4-methylpiperidine methoxime]"
6,92 to 94,"CCC(=O)c1ccc(OCCCN2CCCCC2C)cc1 (stereo not shown) (as salt: oxalate) [Example 95, 1-[3-(4-propionylphenoxy)propyl]-2-methylpiperidine]"
7,120 to 122,"Nc1ccc(OCCCCCN2CCCC2)cc1 (as salt: oxalate) [Example 40, 1-[5-(4-aminophenoxy)-pentyl]-pyrrolidine]"
8,158 to 159,"CC[C@@H]1CC[C@H](C)N(CCCOc2ccc(C#N)cc2)C1 (relative stereo) (as salt: oxalate) [Example 91, 1-[3-(4-cyanophenoxy)propyl]-cis-2-methyl-5-ethylpiperidine]"
9,148 to 151,"O=[N+]([O-])c1ccc(OCCCN2CCCCC2)cc1 (as salt: oxalate) [Example 109, 1-[3-(4-nitrophenoxy)propyl]piperidine]"
10,175 to 177,"Brc1ccc(OCCCN2CCCCC2)cc1 (as salt: oxalate) [Example 108, 1-[3-(4-bromophenoxy)propyl]piperidine]"
11,80 to 82,"O=C(c1ccc(OCCCN2CCCCC2)cc1)C1CCC1 (as salt: oxalate) [Example 89, 1-[3-(4-cyclobutylcarbonylphenoxy)propyl]piperidine]"
12,171 to 173,CC1CCCN(CCCOc2ccc(C#N)cc2)C1.Cl (stereo not shown)
13,102 to 104,"CC(O)c1ccc(OCCCCCN2CCCC2)cc1 (stereo not shown) (as salt: oxalate) [Example 50, 1-{5-[4-(1-hydroxyethyl)-phenoxy]-pentyl}-pyrrolidine]"
14,182 to 183,"CCC(O)c1ccc(OCCCN2CCC(C)CC2)cc1 (stereo not shown) (as salt: oxalate) [Example 97, 1-{3-[4-(1-hydroxypropyl)phenoxy]propyl}-4-methylpiperidine]"
15,161 to 163,"C[C@@H]1C[C@H](C)CN(CCCOc2ccc(C#N)cc2)C1 (as salt: oxalate) [Example 93, 1-[3-(4-cyanophenoxy)propyl]-cis-3,5-dimethylpiperidine]"
16,149 to 150,"Fc1ccc(OCCCCCN2CCCC2)cc1 (as salt: oxalate) [Example 37, 1-[5-(4-fluorophenoxy)-pentyl]-pyrrolidine]"
17,163 to 165,"C[C@H]1C[C@H](C)CN(CCCOc2ccc(C#N)cc2)C1 (relative stereo) (as salt: oxalate) [Example 100, 1-[3-(4-cyanophenoxy)propyl]-trans-3,5-dimethylpiperidine]"
18,143 to 145,"O=C(c1ccc(OCCCN2CCCCC2)cc1)C1CCCC1 (as salt: oxalate) [Example 90, 1-[3-(4-cyclopentylcarbonylphenoxy)propyl]piperidine]"
19,138 to 139,"CCCC(=O)c1ccc(OCCCN2CCCCC2)cc1 (as salt: oxalate) [Example 74, 1-[3-(4-buyrylphenoxy)propyl]piperidine]"
20,135 to 136,"CCC(=O)c1ccc(OCCCN2CCCC(C)C2)cc1 (stereo not shown) (as salt: oxalate) [Example 88, 1-[3-(4-propionylphenoxy)propyl]-3-methylpiperidine]"
21,115 to 116,"COc1ccc(OCCCCCN2CCCC2)cc1 (as salt: oxalate) [Example 20, 1-[5-(4-methoxyphenoxy)-pentyl]-pyrrolidine]"
22,200 to 202,"CC1CCN(CCCOc2ccc(C#N)cc2)CC1 (as salt: hydrochloride) [Example 78, 1-[3-(4-cyanophenoxy)propyl]-4-methylpiperidine]"
23,143 to 144,"CC(=O)c1ccc(OCCCN2CC=CCC2)cc1 (as salt: oxalate) [Example 75, 1-[3-(4-acetylphenoxy)-propyl]-1,2,3,6-tetrahydropyridine]"
24,131 to 134,CC(C)c1ccc(OCCCN2CCCCC2)cc1 (as salt: oxalate) [Example 111]
25,143 to 144,"CC(=O)c1ccc(OCCCN2CCCC(C)C2)cc1 (stereo not shown) (as salt: oxalate) [Example 66, 1-[3-(4-acetylphenoxy)-propyl]-3-methyl-piperidine]"
26,163 to 165,"N#Cc1ccc(OCCCN2CCCC2)cc1 (as salt: oxalate) [Example 58, 1-[3-(4-cyanophenoxy)-propyl]-pyrrolidine]"
27,130 to 134,"CC(=O)c1ccc(OCCCCCN2CCCC2)cc1 (as salt: oxalate) [Example 39, 1-[5-(4-acetylphenoxy)-pentyl]-pyrrolidine]"
28,133 to 136,"CCC(C)c1ccc(OCCCN2CCCCC2)cc1 (stereo not shown) (as salt: oxalate) [Example 112, 1-[3-(4-sec-butylphenoxy)propyl]pipenidine]"

# Further lines, the compound ahead of its results:
row,SMILES,melting point [°C]
1,"CN(C)CCCCCOc1ccc(C#N)cc1 (as salt: oxalate) [Example 53, N-[5-(4-cyanophenoxy)-pentyl]-dimethylamine]",148 to 149
2,"C1=CCN(CCCCCOc2ccccc2)CC1 (as salt: oxalate) [Example 17, 1-(5-phenoxypentyl)-1,2,3,6-tetrahydropyridine]",177 to 179
3,"CCN(C)CCCCCOc1ccccc1 (as salt: oxalate) [Example 3, N-methyl-N-(5-phenoxypentyl)-ethylamine]",122 to 124
4,"CN(C)CCCOc1ccc(C#N)cc1 (as salt: oxalate) [Example 55, N-[3-(4-cyanophenoxy)-propyl]-dimethylamine]",166 to 167
5,"CCOC(=O)C1CCN(CCCCCOc2ccccc2)CC1 (as salt: oxalate) [Example 15, 4-carboethoxy-1-(5-phenoxypentyl)-piperidine]",149 to 150
6,"CCCN(CCC)CCCOc1ccc(C#N)cc1 (as salt: oxalate) [Example 62, N-[3-(4-cyanophenoxy)-propyl]-dipropylamine]",127 to 128
7,"N#Cc1ccc(OCCCN2CCCCC2)cc1 (as salt: oxalate) [Example 59, 1-[3-(4-cyanophenoxy)propyl]piperidine]",151 to 153
8,"c1ccc(SCCCCCN2CCCC2)cc1 (as salt: oxalate) [Example 33, 1-(5-phenylthiopentyl)-pyrrolidine]",150 to 152
9,CC1CCCCN1CCCOc1ccc(C#N)cc1 (stereo not shown) (as salt: hydrochloride) [Example 98],151 to 153
10,"c1ccc2c(OCCCCCN3CCCC3)cccc2c1 (as salt: oxalate) [Example 24, 1-[5-(1-naphthyloxy)-pentyl]-pyrrolidine]",160 to 163
11,"O=[N+]([O-])c1cccc(OCCCCCN2CCCC2)c1 (as salt: oxalate) [Example 36, 1-[5-(3-nitrophenoxy)-pentyl]-pyrrolidine]",130 to 131
12,"c1ccc(-c2ccc(OCCCCCN3CCCC3)cc2)cc1 (as salt: oxalate) [Example 26, 1-[5-(4-phenylphenoxy)-pentyl]-pyrrolidine]",189 to 190
13,"c1ccc(OCCCCCCN2CCCC2)cc1 (as salt: oxalate) [Example 32, 1-(6-phenoxyhexyl)-pyrrolidine]",146 to 147
14,"c1ccc(OCCCCCN2CCCCC2)cc1 (as salt: oxalate) [Example 1, 1-(5-phenoxypentyl)-piperidine]",143 to 145
15,"Clc1cccc(OCCCCCN2CCCC2)c1 (as salt: oxalate) [Example 25, 1-[5-(3-chlorophenoxy)-pentyl]-pyrrolidine]",131 to 132
16,"CCN(CC)CCCOc1ccc(C#N)cc1 (as salt: oxalate) [Example 43, N-[3-(4-cyanophenoxy)-propyl]-diethylamine]",148 to 150
17,"N#Cc1ccc(OCCCCCN2CCCC2)cc1 (as salt: oxalate) [Example 22, 1-[5-(4-cyanophenoxy)-pentyl]-pyrrolidine]",129 to 130
18,"CC1CCCCN1CCCOc1ccc([N+](=O)[O-])cc1 (stereo not shown) (as salt: oxalate) [Example 85, 1-[3-(4-nitrophenoxy)propyl]-2-methylpiperidine]",151 to 153
19,"O=C(c1ccccc1)c1ccc(OCCCCCN2CCCC2)cc1 (as salt: oxalate) [Example 44, 1-[5-(4-benzoylphenoxy)-pentyl]-pyrrolidine]",141 to 142
20,"CCOC(=O)C1CCCN(CCCCCOc2ccccc2)C1 (stereo not shown) (as salt: oxalate) [Example 16, 3-carboethoxy-1-(5-phenoxypentyl)-piperidine]",117 to 118
21,"c1ccc(OCCCCN2CCCC2)cc1 (as salt: oxalate) [Example 31, 1-(4-phenoxybutyl)-pyrrolidine]",143 to 144
22,"c1cc2c(c(OCCCCCN3CCCC3)c1)CCCC2 (as salt: oxalate) [Example 30, 1-{5-[1-(5,6,7,8-tetrahydronaphthyl)-oxy]-pentyl}-pyrrolidine]",148 to 149
23,"N#Cc1ccc(OCCCN2CCCCC2)cc1F (as salt: hydrochloride) [Example 82, 1-[3-(4-cyano-3-fluorophenoxy)propyl]piperidine]",157 to 159
24,"CN(C)S(=O)(=O)c1ccc(OCCCN2CCCCC2)cc1 (as salt: oxalate) [Example 110, 1-[3-(4-N,N-dimethylsulfonamidophenoxy)propyl]piperidine]",149 to 153
